Source: the NIST ThermoML archive (doi:10.1016/j.tca.2011.08.013)
Numbers after ± are expanded uncertainties.

What was measured:
[1] = Liquid; for viscosity: Capillary tube (Ostwald / Ubbelohde) method; for speed of sound: Linear variable-path acoustic interferometer; for mass density: Pycnometric method
[2] = mn = molality of the nth substance listed, in mol/kg; settings: 101 kPa, Liquid; for viscosity: Capillary tube (Ostwald / Ubbelohde) method; for speed of sound: Linear variable-path acoustic interferometer; for mass density: Pycnometric method
[3] = xn = mol fraction of the nth substance listed; settings: 101 kPa, Liquid; for viscosity: Capillary tube (Ostwald / Ubbelohde) method; for speed of sound: Linear variable-path acoustic interferometer; for mass density: Pycnometric method

C[S+](C)[O-] [dimethyl sulfoxide]
[1], 101.33 kPa
Settings | mass density [kg/m3] | speed of sound [m/s] | viscosity [mPa·s]
308.15 K | 1085.9 ± 0.6 | 1457.9 ± 1.7 | 1.655 ± 0.011
318.15 K | 1075.6 ± 0.7 | 1423.4 ± 1.7 | 1.392 ± 0.009

[F-].[K+] [potassium fluoride] + O
[2]
Settings | mass density [kg/m3] | speed of sound [m/s] | viscosity [mPa·s]
303.15 K, m1 = 0.05 | 998.2 ± 1.3 | 1515.5 ± 2.7 | 0.805 ± 0.011
303.15 K, m1 = 0.1 | 1000.4 ± 1.3 | 1518.9 ± 2.8 | 0.811 ± 0.011
303.15 K, m1 = 0.15 | 1002.6 ± 1.3 | 1522.1 ± 2.8 | 0.819 ± 0.011
303.15 K, m1 = 0.2 | 1004.7 ± 1.3 | 1525.8 ± 2.8 | 0.827 ± 0.011
308.15 K, m1 = 0.05 | 996.6 ± 1.3 | 1524 ± 2.8 | 0.726 ± 0.01
308.15 K, m1 = 0.1 | 998.8 ± 1.3 | 1526.9 ± 2.8 | 0.734 ± 0.01
308.15 K, m1 = 0.15 | 1001 ± 1.3 | 1530.5 ± 2.8 | 0.741 ± 0.01
308.15 K, m1 = 0.2 | 1003.2 ± 1.3 | 1534 ± 2.8 | 0.745 ± 0.01
313.15 K, m1 = 0.05 | 994.7 ± 1.3 | 1531.4 ± 2.8 | 0.66 ± 0.009
313.15 K, m1 = 0.1 | 997 ± 1.3 | 1536.1 ± 2.8 | 0.668 ± 0.009
313.15 K, m1 = 0.15 | 999.1 ± 1.3 | 1538.6 ± 2.8 | 0.672 ± 0.009
313.15 K, m1 = 0.2 | 1001.2 ± 1.3 | 1542.4 ± 2.8 | 0.679 ± 0.009
318.15 K, m1 = 0.05 | 992.7 ± 1.3 | 1538.6 ± 2.8 | 0.604 ± 0.009
318.15 K, m1 = 0.1 | 994.8 ± 1.3 | 1543.4 ± 2.8 | 0.612 ± 0.009
318.15 K, m1 = 0.15 | 997 ± 1.3 | 1546.2 ± 2.8 | 0.615 ± 0.009
318.15 K, m1 = 0.2 | 999.2 ± 1.3 | 1549.4 ± 2.8 | 0.622 ± 0.009

C[S+](C)[O-] [dimethyl sulfoxide] + O
[3]
Settings | mass density [kg/m3] | speed of sound [m/s] | viscosity [mPa·s]
303.15 K, x1 = 0.0121 | 1002 ± 1.3 | 1534.6 ± 2.8 | 0.9 ± 0.012
303.15 K, x1 = 0.0255 | 1008 ± 1.3 | 1556.6 ± 2.8 | 0.979 ± 0.013
303.15 K, x1 = 0.0424 | 1015.3 ± 1.3 | 1580 ± 2.8 | 1.089 ± 0.014
303.15 K, x1 = 0.0583 | 1021.4 ± 1.3 | 1602.7 ± 2.8 | 1.224 ± 0.015
308.15 K, x1 = 0.0121 | 1000.3 ± 1.3 | 1541.3 ± 2.8 | 0.805 ± 0.011
308.15 K, x1 = 0.0255 | 1006.4 ± 1.3 | 1561.7 ± 2.8 | 0.888 ± 0.012
308.15 K, x1 = 0.0424 | 1013.6 ± 1.3 | 1583.1 ± 2.8 | 0.988 ± 0.013
308.15 K, x1 = 0.0583 | 1019.3 ± 1.3 | 1603.5 ± 2.8 | 1.102 ± 0.014
313.15 K, x1 = 0.0121 | 998.5 ± 1.3 | 1546.2 ± 2.8 | 0.729 ± 0.01
313.15 K, x1 = 0.0255 | 1004.4 ± 1.3 | 1566 ± 2.8 | 0.806 ± 0.011
313.15 K, x1 = 0.0424 | 1011.4 ± 1.3 | 1586.1 ± 2.8 | 0.887 ± 0.012
313.15 K, x1 = 0.0583 | 1017.6 ± 1.3 | 1604.9 ± 2.8 | 1.002 ± 0.013
318.15 K, x1 = 0.0121 | 996.2 ± 1.3 | 1552.4 ± 2.8 | 0.667 ± 0.009
318.15 K, x1 = 0.0255 | 1002.3 ± 1.3 | 1569.7 ± 2.8 | 0.735 ± 0.01
318.15 K, x1 = 0.0424 | 1009.3 ± 1.3 | 1587.2 ± 2.8 | 0.808 ± 0.011
318.15 K, x1 = 0.0583 | 1015.3 ± 1.3 | 1603.3 ± 2.8 | 0.903 ± 0.012

O [water]
[1], 101 kPa
Settings | speed of sound [m/s] | viscosity [mPa·s]
303.15 K | 1512 ± 2.7 | 0.797 ± 0.011
308.15 K | – | 0.719 ± 0.01
313.15 K | 1528 ± 2.8 | 0.653 ± 0.009
318.15 K | 1535.2 ± 2.8 | 0.597 ± 0.008
